What all share (details): Homo sapiens
Assay [1] has as its system MT4. Nature of the assay: Concentration required to show cytotoxicity for MT-4 cells infected with HIV-1 IIIb strain. The class given is functional.
Assay [2] deals with MT4. Nature of the assay: Tested for cytopathic effect of compound for MT-4 cells infected with HIV-1 IIIb strain relative to R-95288 (1). It is filed as functional, cell-based. A general note: Cytopathic effects are the visible damage that an infection or toxin causes in cultured cells.
Assay [3] concerns MT4. The assay can be described thus: Tested for cytopathic effect of compound for MT-4 cells infected with HIV-1 IIIb strain. It is filed as functional, cell-based.

SMILES strings stand for the structures.

In general, CC50 refers to the concentration at which the toxic effect on the cells reaches its halfway point. A low value points to harm at low concentration. Broadly, the IC50 is the concentration that inhibits the measured activity by half.

`Cc1cn([C@H]2C[C@H](OP(=O)(O)O[C@H]3O[C@@H](n4cnc5c(O)nc(N)nc54)C[C@@H]3OP(=O)(O)OC[C@H]3O[C@@H](n4cnc5c(O)nc(N)nc54)C[C@@H]3OP(=O)(O)OC[C@H]3O[C@@H](n4cnc5c(O)nc(N)nc54)C[C@@H]3OP(=O)(O)O)[C@@H](COCc3ccc(OCc4ccccc4)c(OCc4ccccc4)c3)O2)c(=O)[nH]c1=O` showed a CC50 in the assay with MT4 [1] of more than 40 µM. Further, the IC50 in the assay with MT4 [2] was 43 µM.

In the case of `Cc1cn([C@H]2C[C@H](OP(=O)(O)O[C@H]3O[C@@H](n4cnc5c(=O)[nH]c(N)nc54)C[C@@H]3OP(=O)(O)OC[C@H]3O[C@@H](n4cnc5c(=O)[nH]c(N)nc54)C[C@@H]3OP(=O)(O)OC[C@H]3O[C@@H](n4cnc5c(=O)[nH]c(N)nc54)C[C@@H]3OP(=O)(O)OC[C@H]3O[C@@H](n4cnc5c4N=CNC5N)C[C@@H]3OP(=O)(O)OC[C@H]3O[C@@H](n4cnc5c(=O)[nH]c(N)nc54)C[C@@H]3OP(=O)(O)OCCO)[C@@H](COCc3ccc(OCc4ccccc4)c(OCc4ccccc4)c3)O2)c(=O)[nH]c1=O` (some centres undefined), in the assay with MT4 [1], the CC50 was more than 40 µM. In the assay on MT4 [3], the IC50 turned out to be 1 µM.
